Patent publication US11330821B2, “Herbicidal compounds” (Syngenta Participations AG, priority 2015, dated 2022)

Columns and labels:
Type in all cases: in vivo
Conditions in all cases: post-emergence spray, evaluated after 13 days
[1] = tested on: Ipomoea hederacea (IPOHE); assay: Post-emergence efficacy, Ipomoea hederacea
Procedure: (§1) B1 Post-Emergence Efficacy
(§2) Seeds of a variety of test species are shown in standard soil in pots:—Solanum nigrum (SOLNI), Amaranthus retroflexus (AMARE), Setaria faberi (SETFA), Echinochloa crus-galli (ECHCG), Ipomoea hederacea (IPOHE), Lolium perenne (LOLPE). After 8 days cultivation (post-emergence) under controlled conditions in a glasshouse (at 24/16° C., day/night; 14 hours light; 65% humidity), the plants are sprayed with an aqueous spray solution derived from the formulation of the technical active ingredient in acetone/water (50:50) solution containing 0.5% Tween 20 (polyoxyethylene sorbitan monolaurate, CAS RN 9005-64-5). Compounds are applied at 1000 and 62.5 g/ha. The test plants are then grown in a glasshouse under controlled conditions in a glasshouse (at 24/16° C., day/night; 14 hours light; 65% humidity) and watered twice daily. After 13 days, the test is evaluated for the percentage damage caused to the plant. The biological activities are assessed on a five point scale (5=80-100%; 4=60-79%; 3=40-59%; 2=20-39%; 1=0-19%).

Lolium perenne (LOLPE) = assay: Post-emergence efficacy, Lolium perenne
Procedure: as §1, §2

[2] = tested on: Echinochloa crus-galli (ECHCG); assay: Post-emergence efficacy, Echinochloa crus-galli
Procedure: as §1, §2

Setaria faberi (SETFA) = assay: Post-emergence efficacy, Setaria faberi
Procedure: as §1, §2

[3] = tested on: Amaranthus retroflexus (AMARE); assay: Post-emergence efficacy, Amaranthus retroflexus
Procedure: as §1, §2

Solanum nigrum (SOLNI) = assay: Post-emergence efficacy, Solanum nigrum
Procedure: as §1, §2

Compound | IPOHE percentage damage caused to the plant (five point scale) ([1]; 62.5 g/ha) | IPOHE percentage damage caused to the plant (five point scale) ([1]; 1000 g/ha) | LOLPE percentage damage caused to the plant (five point scale) (Lolium perenne (LOLPE); 62.5 g/ha) | LOLPE percentage damage caused to the plant (five point scale) (Lolium perenne (LOLPE); 1000 g/ha) | ECHCG percentage damage caused to the plant (five point scale) ([2]; 62.5 g/ha) | ECHCG percentage damage caused to the plant (five point scale) ([2]; 1000 g/ha) | SETFA percentage damage caused to the plant (five point scale) (Setaria faberi (SETFA); 62.5 g/ha) | SETFA percentage damage caused to the plant (five point scale) (Setaria faberi (SETFA); 1000 g/ha) | AMARE percentage damage caused to the plant (five point scale) ([3]; 62.5 g/ha) | AMARE percentage damage caused to the plant (five point scale) ([3]; 1000 g/ha) | SOLNI percentage damage caused to the plant (five point scale) (Solanum nigrum (SOLNI); 62.5 g/ha) | SOLNI percentage damage caused to the plant (five point scale) (Solanum nigrum (SOLNI); 1000 g/ha)
Cc1nn(C)c(=O)c(-c2c(F)ccc(Cl)c2OCc2nccs2)c1O [Compound 1.25] | 5 (5=80-100%) | 5 (5=80-100%) | 4 (4=60-79%) | 5 (5=80-100%) | 4 (4=60-79%) | 5 (5=80-100%) | 5 (5=80-100%) | 5 (5=80-100%) | 5 (5=80-100%) | 5 (5=80-100%) | 5 (5=80-100%) | 5 (5=80-100%)
Cc1nc(COc2c(Cl)ccc(F)c2-c2c(O)c(C)nn(C)c2=O)cs1 [Compound 1.33] | 4 (4=60-79%) | 5 (5=80-100%) | 2 (2=20-39%) | 4 (4=60-79%) | 3 (3=40-59%) | 4 (4=60-79%) | 2 (2=20-39%) | 5 (5=80-100%) | 3 (3=40-59%) | 5 (5=80-100%) | 4 (4=60-79%) | 5 (5=80-100%)
Cc1csc(COc2c(Cl)ccc(F)c2-c2c(O)c(C)nn(C)c2=O)n1 [Compound 1.34] | 5 (5=80-100%) | 5 (5=80-100%) | 3 (3=40-59%) | 4 (4=60-79%) | 4 (4=60-79%) | 5 (5=80-100%) | 4 (4=60-79%) | 5 (5=80-100%) | 4 (4=60-79%) | 5 (5=80-100%) | 5 (5=80-100%) | 5 (5=80-100%)
Cc1nn(C)c(=O)c(-c2c(Cl)c(Cl)cc(Cl)c2OCc2cnc(Cl)s2)c1O [Compound 5.01] | 5 (5=80-100%) | 5 (5=80-100%) | 2 (2=20-39%) | 5 (5=80-100%) | 2 (2=20-39%) | 5 (5=80-100%) | 2 (2=20-39%) | 5 (5=80-100%) | 3 (3=40-59%) | 5 (5=80-100%) | 5 (5=80-100%) | 5 (5=80-100%)
